Converted amounts (≈) assume the structure as drawn. “And” between values parts separate entries of the source, which are not always exact repeats. Equal entries are not always repeated. Where a SMILES comes first, the peptide text is derived from it. Where no end group is shown, it is not given here.
Legend:
A. baumannii = assay type: cell-based, Acinetobacter baumannii; conditions: 24 h
From the text: (§1) A. baumannii strain (CECT 452, Valencia, Spain, ATCC 15308, Manassas, VA, USA) and Pseudomonas aeruginosa (P. aeruginosa) strain (CECT 4122, Valencia, Spain, ATCC 15692, Manassas, VA, USA) were from the Colección Española de Cultivos Tipo (CECT, Valencia, Spain). The Escherichia coli (E. coli) BL21 (DE3) strain was from Novagen (Darmstadt, Germany). MRC-5 cells were from the American Type Culture Collection (ATCC, Manassas, VA, USA) and HEK293T cell line was kindly provided by Dr. Raquel Pequerul (UAB, Barcelona, Spain).
(§2) The MIC is defined as the lowest concentration of one reagent to prevent visible growth of bacteria. The MIC determination was followed by the protocol described previously. Briefly, bacteria in exponential growth were used to prepare a suspension in MHB with the approximate number of 5 × 10^5 CFU/mL. Next, an aliquot of 90 μL of bacteria suspension was added into each well of the 96-well polypropylene plate. Immediately, 10 μL of peptide diluted by 0.01% acetic acid was added to the corresponding well to have a final concentration ranging from 20 to 0.16 μM. The plate was incubated for 24 h at 37 °C, 100 rpm. The presence or absence of bacterial growth was visually inspected and confirmed by reading OD600 with Tecan Microplate Reader Spark®. Each test was performed in triplicate.

[1] = human serum in vitro; cited from earlier work
E. coli = assay type: cell-based, Escherichia coli; conditions: 24 h
From the text: as §1, §2

P. aeruginosa = assay type: cell-based, Pseudomonas aeruginosa; conditions: 24 h
From the text: as §1, §2

in vitro = conditions: human, MRC-5 cells; for CC50 at 24 h: LD50 (MRC-5) 24 h; for CC50 at 48 h: LD50 (MRC-5) 48 h
Protocol: (§3) Cytotoxicity was measured for the MRC-5 and HEK293T cell lines by MTT assay. Cells were grown in 5% CO2 at 37 °C with MRC-5 cell line maintained in MEMα and HEK293T in DMEM/F-12 media, both of which were supplemented with 10% FBS. The cells were passaged in 25 cm^2 or 75 cm^2 flasks to prepare 96-well plates with 3 × 10^4 cells/well, which were incubated overnight. Next, serial dilutions of ECPep-D and ECPep-2D-Orn were added to have a final concentration ranging from 100 to 0.78 μM (375 μg/mL to 3 μg/mL) and colistin was added at final concentrations ranging from 300 to 2.34 μM (380 μg/mL to 3 μg/mL) in corresponding wells. After incubation to the specified time, the medium of the plate was replaced by fresh medium containing 0.5 mg/mL MTT solution and the mixture was incubated for 2.5 h in 5% CO2 at 37 °C. The medium was then removed, and formazan was dissolved by adding DMSO. The optical density (OD) was recorded by using a Victor^3 plate reader (PerkinElmer, Waltham, MA, USA) set at 540 nm and 620 nm as a reference. Each test was performed in triplicate.

[2] = Tolerance study of peptides in mouse (Up and Down, main study, extra groups); assay type: in vivo, Balb/c mice; conditions: for clinical score: 30 mg/kg i.p., within 30 min; for clinical score / MTD: Up and Down assay; for MTD: in vivo, ip, one single dose, i.p., 1 mouse per peptide, read-out: maximum tolerated dose; for clinical signs after a single dose (main study): single i.p. dose: 20 mg/kg ECPep-D, 25 mg/kg ECPep-2D-Orn, all mice
Protocol: Initially, the “Up and Down” protocol was followed to determine the maximum lethal dose with some modifications. Briefly, one mouse was taken per peptide and increasing doses of the peptide were injected through the intraperitoneal (i.p.) route every 48 h, and the concentration at which the mouse had severe clinical symptoms or died was determined (Figure 1a).
Figure 1 Toxicity study plans. (a) “Up and Down” protocol: 1 mouse was injected, starting at a very low peptide dose and observed at 48 h intervals. […] (b) Main study: mice were divided into groups randomly; 1 as well as 2 peptide doses below the lethal dose from the “Up and Down” assay was given two times per day for 3 days (the protocol was readjusted in case of emergency owing to ethical principles, as detailed in the results section and Table S1). An extra group is for the vehicle. (c) Last study: Peptide was tested in smaller groups at lower doses depending on the results obtained from the main study.
Once the lethal concentration had been determined, we continued with the “main study” (Figure 1b). Two groups of 6 female mice were used at two different concentrations of both peptides, one and two concentrations below the maximum considered either by lethality or by clinical signs. The toxicity was further verified by mimicking the doses and frequency foreseen in the previous study, i.e., two doses per day for 3 days as the initial plan.
There was also an extra group to confirm the non-toxicity of the vehicle. For extra caution, some additional doses were applied to confirm the safety dose in case of repeated injections (Figure 1c).
Body weight (BW, g) of mice was measured before every injection and % BW gain was calculated. % BW gain = (new BW − initial BW)/initial BW × 100%(1)
In the tolerance study, for the “Up and Down” assay, the BW was recorded twice on the administration day and, for the “main study”, it was measured every day at the first 3 days and then at some selected days until the 16th day, when the monitoring was finished. In both efficacy assays, BW was recorded once a day but on the first day (Day 0), a second measure was conducted at 8 h.
The clinical symptoms were assessed through a scoring system, which contains 9 items, including changes of body weight, behavior, breathing, skin, hair, eyes and gastrointestinal status (see full list at Table S2). The score for each item increases from 0 to 3 according to the severe levels, up to a total of 27. During the study, when an animal obtained a score of 3 in any of the parameters assessed with a maximum score of 3, euthanasia was carried out to apply the endpoint criteria. Euthanasia would also be practiced if the sum of several parameters that are less than 3 separately was ≥ 7.
In the tolerance study, the clinical score was recorded at about 10 min, 30 min, 1 h, 2 h, 4 h, 7 h, 24 h and 48 h after injecting the peptides for the “Up and Down” assay and in the main study, the clinical score were only monitored when the BW was measured. During the efficacy assay, the clinical score was recorded every 2–3 h on Day 0 and then twice every day.

HEK293T cells = conditions: 48 h
Protocol: as §3

MRC-5 cells = experiment: Cytotoxicity assay (MTT); conditions: all the assayed time range (up to 48 h), highest concentration 100 μM
Protocol: as §3

| Compound | MIC A. baumannii (A. baumannii) [µM] | half-life time in human serum [1] [h] | MIC E. coli (E. coli) [µM] | MIC P. aeruginosa (P. aeruginosa) [µM] | CC50 at 4 h (in vitro; LD50 (MRC-5) 4 h) | clinical score [2] | MTD [2] [mg/kg] | clinical signs after a single dose (main study) [2] | CC50 at 24 h (in vitro) | CC50 at 48 h (in vitro) | IC50 (HEK293T cells) [µM] | toxicity for MRC-5 at the highest tested concentration (MRC-5 cells) |
| --- | --- | --- | --- | --- | --- | --- | --- | --- | --- | --- | --- | --- |
| RPFTRAQWFAIQHISPRTIAMRAINNYRWR-NH2 [ECPep-L] | 10 | 0.2 | 10 | 10 | 276 µM and > 1000 µg/mL | – | – | – | – | – | – | – |
| CC[C@@H](C)[C@@H](NC(=O)[C@@H](C)NC(=O)[C@@H](CCCNC(=N)N)NC(=O)[C@@H](CCSC)NC(=O)[C@@H](C)NC(=O)[C@H](NC(=O)[C@H](NC(=O)[C@@H](CCCNC(=N)N)NC(=O)[C@H]1CCCN1C(=O)[C@@H](CO)NC(=O)[C@H](NC(=O)[C@@H](Cc1c[nH]cn1)NC(=O)[C@@H](CCC(N)=O)NC(=O)[C@H](NC(=O)[C@@H](C)NC(=O)[C@@H](Cc1ccccc1)NC(=O)[C@@H](Cc1c[nH]c2ccccc12)NC(=O)[C@@H](CCC(N)=O)NC(=O)[C@@H](C)NC(=O)[C@@H](CCCNC(=N)N)NC(=O)[C@H](NC(=O)[C@@H](Cc1ccccc1)NC(=O)[C@H]1CCCN1C(=O)[C@H](N)CCCNC(=N)N)[C@H](C)O)[C@H](C)CC)[C@H](C)CC)[C@H](C)O)[C@H](C)CC)C(=O)N[C@H](CC(N)=O)C(=O)N[C@H](CC(N)=O)C(=O)N[C@H](Cc1ccc(O)cc1)C(=O)N[C@H](CCCNC(=N)N)C(=O)N[C@H](Cc1c[nH]c2ccccc12)C(=O)N[C@H](CCCNC(=N)N)C(N)=O [ECPep-D] (HELM PEPTIDE1{[dR].[dP].[dF].[dT].[dR].[dA].[dQ].[dW].[dF].[dA].[dI].[dQ].[dH].[dI].[dS].[dP].[dR].[dT].[dI].[dA].[dM].[dR].[dA].[dI].[dN].[dN].[dY].[dR].[dW].[dR].[am]}$$$$V2.0) | 10 (≈ 37.6 µg/mL) | – | 10 (≈ 37.6 µg/mL) | 10 (≈ 37.6 µg/mL) | – | over 6 | 20 | did not cause any obvious clinical signs | 164 ± 33.2 µg/mL (≈ 43.5 µM) | 88.4 ± 17.8 µg/mL (≈ 23.5 µM) | – | – |
| CC[C@H](C)[C@H](NC(=O)[C@H](C)NC(=O)[C@H](CCCN)NC(=O)[C@H](CCSC)NC(=O)[C@H](C)NC(=O)[C@@H](NC(=O)[C@@H](NC(=O)[C@H](CCCN)NC(=O)[C@@H]1CCCN1C(=O)[C@H](CO)NC(=O)[C@@H](NC(=O)[C@H](Cc1c[nH]cn1)NC(=O)[C@H](CCC(N)=O)NC(=O)[C@@H](NC(=O)[C@H](C)NC(=O)[C@H](Cc1ccccc1)NC(=O)[C@H](Cc1c[nH]c2ccccc12)NC(=O)[C@H](CCC(N)=O)NC(=O)[C@H](C)NC(=O)[C@H](CCCN)NC(=O)[C@@H](NC(=O)[C@H](Cc1ccccc1)NC(=O)[C@H]1CCCN1C(=O)[C@@H](N)CCCN)[C@@H](C)O)[C@@H](C)CC)[C@@H](C)CC)[C@@H](C)O)[C@@H](C)CC)C(=O)N[C@@H](CC(N)=O)C(=O)N[C@@H](CC(N)=O)C(=O)N[C@@H](Cc1ccc(O)cc1)C(=O)N[C@@H](CCCN)C(=O)N[C@@H](Cc1c[nH]c2ccccc12)C(=O)N[C@@H](CCCN)C(N)=O [ECPep-2D-Orn] (HELM PEPTIDE1{[Orn].[dP].F.T.[Orn].A.Q.W.F.A.I.Q.H.I.S.P.[Orn].T.I.A.M.[Orn].A.I.N.N.Y.[Orn].W.[Orn].[am]}$$$$V2.0) | 5 (≈ 17.5 µg/mL) | > 8 | >20 | >20 | – | over 6 | 25 | did not cause any obvious clinical signs | > 100 µM and > 351 µg/mL | > 100 µM and > 351 µg/mL | > 100 | no toxicity was observed |
